{"source": "paper PMC7311950", "about": "“Potent Tetrahydroquinolone Eliminates Apicomplexan Parasites” (Frontiers in Cellular and Infection Microbiology, 2020)", "key": {"[1]": {"system": "P-glycoprotein (P-gp, MDR1)", "test": "in vitro", "settings": "dog, MDCK-MDR1", "experimental": "(§1) The effects of changing R1 as 7-Et, 7-Me, 6-CF3, or 6-Me on activity against RH strain tachyzoites, kinetic solubility, and metabolic stability were compared. Kinetic solubility and metabolic stability in human or murine liver microsomes were measured. The hERG (human Ether-à-go-go-Related) liability was also determined. The hERG gene (KCNH2) encodes a protein Kv11.1, the alpha subunit of a potassium ion channel. This channel conducts the rapid component of the delayed rectifier potassium current, IKr, which is critical for repolarization of cardiac action potentials. A reduction in hERG currents from adverse drug effects can lead to long QT interval syndromes. These syndromes are characterized by action potential prolongation, lengthening of the QT interval on surface EKG, and an increased risk for “torsade de pointes” arrhythmias and sudden death. The MDCK-MDR1 Permeability Assay was also performed. MDCK-MDR1 refers to the ability of a compound to permeate across membranes of MDCK-MDR1 (Madin Darby canine kidney [MDCK] cells with the MDR1 gene [ABCB1], the gene encoding for the efflux protein, P-glycoprotein (P-gp)) in vitro. Assessing transport in both directions (apical to basolateral and basolateral to apical) across the cell monolayers enables an efflux ratio to be determined. […] This provides a prediction of blood brain barrier (BBB) penetration potential/permeability and efflux ratio. Effect in CACO-2 (Colon Adenocarcinoma cells) as a permeability assay and on cytochrome P450 (CYP 450) were also determined. CYP enzymes catalyze oxidative biotransformation (phase 1 metabolism) of most drugs. CYP enzymes, bind to membranes in a cell (cyto) and contain a heme pigment (chrome and P) that absorbs light at a wavelength of 450 nm when exposed to carbon monoxide. Metabolism of a drug by CYP enzymes is a major source of variability in drug effect. These were measured by Chem Partners. The relative effect on HFF and parasite enzymes also were compared.\n(§2) In vitro absorption, distribution, metabolism, excretion, and toxicity (ADMET) analyses of the THQ compounds were outsourced to ChemPartner Shanghai Ltd. ELQ-271 (synthesized in-house) was tested as a comparison."}, "[2]": {"test": "Caco-2 permeability assay", "format": "in vitro ADME", "settings": "human, A-B, read-out: Caco-2 permeability PappA-B"}, "T. gondii RPS13Δ": {"system": "T. gondii RPS13Δ", "test": "RPS13Δ infection of interferon γ receptor knockout mice", "format": "in vivo, Toxoplasma gondii", "settings": "mice to start 5 (Tafenoquine), 5 (JAG21)", "experimental": "In pilot studies, herein, interferon γ receptor knockout mice that were not treated were observed following infection. At 7 and at 14 days following infection, spleen, and liver were removed and immune peroxidase stained. At 14 days a group of mice were treated with anhydrotetracycline and when a subset of these mice died, their spleen and liver were removed and immune peroxidase stained.\nAs in the pilot studies, this RPS13 Δ parasite also was used to infect interferon γ receptor knockout mice in a treatment study. In this separate study, groups of mice were infected with RPS13 Δ. They were treated with tafenoquine on day−1, or JAG21 for 14 days 2 h after infection, or the two together with tafenoquine on day−1 and JAG21 for the first 14 days, or with diluent only for 14 days, as described above. For the initial 14 days, no tetracycline was administered. After that time tetracycline was administered. Mice were observed each day. At the time they appeared to have substantial illness or at the termination of the experiment they were euthanized, tissues fixed in formalin and stained with hematoxylin and eosin or immunoperoxidase stained and parasite burden was assessed."}, "PPB (human)": {"test": "PPB (human)", "format": "in vitro ADME", "settings": "plasma"}, "hERG": {"molecular_target": "hERG (Homo sapiens, UniProt Q12809)", "sequence (Q12809 whole entry)": "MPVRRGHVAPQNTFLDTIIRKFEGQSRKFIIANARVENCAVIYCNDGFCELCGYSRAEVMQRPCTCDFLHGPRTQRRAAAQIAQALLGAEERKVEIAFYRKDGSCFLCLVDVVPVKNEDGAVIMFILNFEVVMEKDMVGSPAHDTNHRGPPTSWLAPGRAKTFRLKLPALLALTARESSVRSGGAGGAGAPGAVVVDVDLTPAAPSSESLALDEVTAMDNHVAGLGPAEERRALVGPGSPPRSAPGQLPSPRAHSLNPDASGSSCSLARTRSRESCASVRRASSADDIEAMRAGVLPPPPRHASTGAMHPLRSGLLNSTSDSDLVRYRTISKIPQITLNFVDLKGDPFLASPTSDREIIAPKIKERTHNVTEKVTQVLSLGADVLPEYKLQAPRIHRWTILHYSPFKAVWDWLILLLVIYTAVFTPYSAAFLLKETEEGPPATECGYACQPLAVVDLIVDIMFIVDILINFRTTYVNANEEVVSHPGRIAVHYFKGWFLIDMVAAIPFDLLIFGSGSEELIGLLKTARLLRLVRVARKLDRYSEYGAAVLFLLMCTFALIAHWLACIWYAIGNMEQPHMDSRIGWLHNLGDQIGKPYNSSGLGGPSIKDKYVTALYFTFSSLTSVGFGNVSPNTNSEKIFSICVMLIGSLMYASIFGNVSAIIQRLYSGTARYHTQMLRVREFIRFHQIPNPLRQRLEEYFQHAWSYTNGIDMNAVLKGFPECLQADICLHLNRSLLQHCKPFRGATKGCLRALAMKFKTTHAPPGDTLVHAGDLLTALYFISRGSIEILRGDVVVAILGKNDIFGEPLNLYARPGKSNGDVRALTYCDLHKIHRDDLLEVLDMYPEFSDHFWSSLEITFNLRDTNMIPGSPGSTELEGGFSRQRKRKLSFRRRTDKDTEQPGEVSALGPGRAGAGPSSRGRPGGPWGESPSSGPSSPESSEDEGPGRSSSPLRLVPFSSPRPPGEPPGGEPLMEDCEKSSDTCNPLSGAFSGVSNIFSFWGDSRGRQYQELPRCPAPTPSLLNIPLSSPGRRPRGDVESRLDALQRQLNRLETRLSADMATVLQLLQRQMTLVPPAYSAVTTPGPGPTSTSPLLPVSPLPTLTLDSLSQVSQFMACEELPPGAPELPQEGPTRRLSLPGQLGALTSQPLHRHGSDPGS", "test": "hERG liability", "format": "biochemical"}, "T. gondii RH tachyzoites": {"system": "T. gondii RH tachyzoites", "test": "RH YFP challenge, oral nanoformulation of JAG21", "format": "in vivo, Toxoplasma gondii", "settings": "for parasite burden reduced: peritoneal fluid 5 days later", "experimental": "JAG21 was prepared using hydroxyethyl cellulose (HEC) and Tween 80. Briefly, this dispersant solution containing 5 mg/mL HEC and 2 mg/mL Tween 80 in water was prepared. Solid JAG21 was added to 20 mg/mL, and the dispersion was sonicated for 60 s using a Sonics vc50 probe-tip sonicator set to 20 kHz to homogenize. Sonication was performed at room temperature. Aliquots of the homogeneous dispersion were frozen and lyophilized using a VirTis AdVantage freeze drier. These aliquots were stored at room temperature for 5–6 months. Prior to dosing, aliquots were reconstituted using water. Controls containing no JAG21 were also prepared. Following reconstitution with water, the dispersion was imaged using a Nikon ECLIPSE E200 optical microscope set to 40x magnification. The average particle size of the JAG21 dispersion in HEC/Tween 80 was determined using an in-house image analysis program. This novel method to stably formulate JAG21 was discovered after all other studies were completed and this was the last experiment in this manuscript performed as a consequence.\nFor studies of the nano formulated JAG 21, this was administered for 1 or 3 days by gavage in the doses shown in the results section. These C57BL6 background mice received 2000 RH tachyzoites IP. on day the first day of the experiment and peritoneal fluid was collected 5 days later to quantitate fluorescence and numbers of parasites."}, "[3]": {"system": "cytochrome P450 (CYP 450), 4 of 5 isoforms tested", "test": "CYP450 inhibition", "format": "in vitro ADME", "settings": "human; 4/5 isoforms"}, "[4]": {"system": "P-glycoprotein (P-gp, MDR1/ABCB1)", "test": "in vitro", "settings": "dog, MDCK-MDR1", "experimental": "as §1, §2"}}, "note": "pIC50: −log10 of the molar value.", "data": [{"smiles": "Cc1[nH]c2c(c(=O)c1-c1ccc(Oc3ccc(OC(F)(F)F)cc3)cc1)CCCC2", "note": "[JAG21, 2-Methyl-3-(4-(4-(Trifluoromethoxy)Phenoxy)Phenyl)-5,6,7,8-Tetrahydroquinolin-4-One]", "values": [{"measurement": "Papp", "setting": "[1]", "result": "> 10", "unit": "×10⁻⁶ cm/s"}, {"measurement": "efflux ratio", "setting": "[1]", "result": "< 1.5"}, {"measurement": "Papp", "setting": "[2]", "result": "> 10", "unit": "×10⁻⁶ cm/s"}, {"measurement": "number of mice left at 42", "setting": "T. gondii RPS13Δ; Experiment 1, 6 (Tafenoquine+JAG21)", "result": 2}, {"measurement": "number of mice left at 37", "setting": "T. gondii RPS13Δ; Experiment 2, 9 (Tafenoquine+JAG21)", "result": 3}, {"measurement": "fraction unbound", "setting": "PPB (human)", "result": 0.001}, {"measurement": "pIC50", "setting": "hERG", "result": 4.66}, {"measurement": "parasite burden reduced", "setting": "T. gondii RH tachyzoites; single dose 10 mg/kg", "result": "~ 60%"}, {"measurement": "parasite burden reduced", "setting": "T. gondii RH tachyzoites; single dose 20 mg/kg", "result": "~ 60%"}, {"measurement": "parasite burden", "setting": "T. gondii RH tachyzoites; three doses of 10 mg/kg on first 3 days, fifth day", "result": "markedly reduced"}, {"measurement": "pIC50", "setting": "[3]", "result": "< 5.00"}]}, {"smiles": "Cc1[nH]c2c(c(=O)c1-c1ccc(Oc3ccc(Cl)cc3)cc1)CCCC2", "note": "[JAG50]", "values": [{"measurement": "Papp", "setting": "[4]", "result": "> 10", "unit": "×10⁻⁶ cm/s"}, {"measurement": "efflux ratio", "setting": "[4]", "result": "< 1.5"}]}]}
